# Measured values published in US11051515B2, “3-acyl-benzamides and their use as herbicides” (Bayer Aktiengesellschaft, priority 2017, dated 2021).
# Columns and labels:
# ALOMY [1] = assay: Post-emergence action against ALOMY; assay type: in vivo, Alopecurus myosuroides; conditions: Alopecurus myosuroides, 504 h; Dosage 80 g/ha, post-emergence
# Procedure, shortened: (§1)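 Post-emergence foliar spray on greenhouse plants at the one-leaf stage, using wettable-powder or emulsion-concentrate formulations in water (600 to […], plus 0.2% wetting agent). Damage scored by eye roughly 3 weeks later against untreated plants: 0% = like control, 100% = dead.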
# PHBPU = assay: Pre-emergence action against PHBPU; assay type: in vivo, Pharbitis purpurea; conditions: Ipomoea purpurea, 504 h; Dosage 320 g/ha, pre-emergence
# Procedure, shortened: (§2)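 Seeds sown in sandy loam in wood-fiber pots and covered with soil. Greenhouse growth; visual damage scored after 3 weeks versus untreated controls (100% = dead, 0% = like control).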
# ALOMY [2] = assay: Pre-emergence action against ALOMY; assay type: in vivo, Alopecurus myosuroides; conditions: Alopecurus myosuroides, 504 h; dosage 320 g/ha; pre-emergence; scored visually after 3 weeks vs untreated controls; 100% = plants have died, 0% = like control plants; read-out: Pre-emergence action against ALOMY (herbicidal activity in percent)
# Procedure, shortened: as §2
# SETVI = assay: Pre-emergence action against SETVI; assay type: in vivo, Setaria viridis; conditions: Setaria viridis, 504 h; pre-emergence, dosage 320 g/ha, scored visually after 3 weeks vs untreated controls; read-out: SETVI (Table B8, pre-emergence herbicidal activity)
# Procedure, shortened: as §2
# VIOTR = assay: Pre-emergence action against VIOTR; assay type: in vivo, Viola tricolor; conditions: Viola tricolor, 504 h; Dosage 320 g/ha, pre-emergence
# Procedure, shortened: as §2
# POLCO = assay: Pre-emergence action against POLCO; assay type: in vivo, Polygonum convolvulus; conditions: Fallopia convolvulus, 504 h; Dosage 320 g/ha, pre-emergence
# Procedure, shortened: as §2
# ABUTH [3] = assay: Pre-emergence action against ABUTH; assay type: in vivo, Abutilon theophrasti; conditions: Abutilon theophrasti, 504 h; pre-emergence, dosage 320 g/ha, scored visually after 3 weeks vs untreated controls; read-out: Pre-emergence action against ABUTH (herbicidal activity)
# Procedure, shortened: as §2
# AVEFA [4] = assay: Pre-emergence action against AVEFA; assay type: in vivo, Avena fatua; conditions: Avena fatua, 504 h, dosage 320 g/ha, scored visually after 3 weeks vs untreated controls, read-out: Pre-emergence action against AVEFA (herbicidal activity)
# Procedure, shortened: as §2
# VERPE [5] = assay: Pre-emergence action against VERPE; assay type: in vivo, Veronica persica; conditions: Veronica persica, 504 h; Dosage 320 g/ha, pre-emergence
# Procedure, shortened: as §2
# AVEFA [6] = assay: Post-emergence action against AVEFA; assay type: in vivo, Avena fatua; conditions: Avena fatua, 504 h; post-emergence, dosage 80 g/ha, visual assessment about 3 weeks after treatment vs untreated controls; read-out: Post-emergence action against AVEFA (herbicidal action in percent)
# Procedure, shortened: as §1
# MATIN [7] = assay: Post-emergence action against MATIN; assay type: in vivo, Matricaria inodora; conditions: Tripleurospermum inodorum, 504 h; post-emergence, dosage 80 g/ha, visual assessment about 3 weeks after treatment vs untreated controls; read-out: Post-emergence action against MATIN (herbicidal action in percent)
# Procedure, shortened: as §1
# AMARE = assay: Pre-emergence action against AMARE; assay type: in vivo, Amaranthus retroflexus; conditions: Amaranthus retroflexus, 504 h; pre-emergence, dosage 320 g/ha, scored visually after 3 weeks vs untreated controls; read-out: Pre-emergence action against AMARE (herbicidal activity)
# Procedure, shortened: as §2
# MATIN [8] = assay: Pre-emergence action against MATIN; assay type: in vivo, Matricaria inodora; conditions: Tripleurospermum inodorum, 504 h; Dosage 320 g/ha, pre-emergence
# Procedure, shortened: as §2
# CYPES = assay: Post-emergence action against CYPES; assay type: in vivo, Cyperus esculentus; conditions: Cyperus esculentus, 504 h; post-emergence, dosage 80 g/ha, visual assessment about 3 weeks after treatment vs untreated controls; read-out: Post-emergence action against CYPES (herbicidal action in percent)
# Procedure, shortened: as §1
# STEME = assay: Post-emergence action against STEME; assay type: in vivo, Stellaria media; conditions: Stellaria media, 504 h; post-emergence, dosage 80 g/ha
# Procedure, shortened: as §1
# ABUTH [9] = assay: Post-emergence action against ABUTH; assay type: in vivo, Abutilon theophrasti; conditions: Abutilon theophrasti, 504 h; post-emergence, dosage 80 g/ha, visual assessment about 3 weeks after treatment vs untreated controls; read-out: Post-emergence action against ABUTH (herbicidal action in percent)
# Procedure, shortened: as §1
# ECHCG [10] = assay: Post-emergence action against ECHCG; assay type: in vivo, Echinochloa crus-galli; conditions: Echinochloa crus-galli, 504 h; post-emergence, dosage 80 g/ha, visual assessment about 3 weeks after treatment vs untreated controls; read-out: Post-emergence action against ECHCG (herbicidal action in percent)
# Procedure, shortened: as §1
# ECHCG [11] = assay: Pre-emergence action against ECHCG; assay type: in vivo, Echinochloa crus-galli; conditions: Echinochloa crus-galli, 504 h; pre-emergence, dosage 320 g/ha, scored visually after 3 weeks vs untreated controls; read-out: Pre-emergence action against ECHCG (herbicidal activity)
# Procedure, shortened: as §2
# VERPE [12] = assay: Post-emergence action against VERPE; assay type: in vivo, Veronica persica; conditions: Veronica persica, 504 h, dosage 80 g/ha
# Procedure, shortened: as §1
compound,measurement,setting,value
"CCn1nnnc1NC(=O)c1ccc(C(F)(F)F)c(C(=O)C2CC2)c1C [2-18, 3-(cyclopropylcarbonyl)-N-(1-ethyl-1H-tetrazol-5-yl)-2-methyl-4-(trifluoromethyl)benzamide]",pest or weed control at 80 g/ha,ALOMY [1],100%
same,pest or weed control at 320 g/ha,PHBPU,90%
same,pest or weed control at 320 g/ha,ALOMY [2],100%
same,pest or weed control at 320 g/ha,SETVI,100%
same,pest or weed control at 320 g/ha,VIOTR,100%
same,pest or weed control at 320 g/ha,POLCO,90%
same,pest or weed control at 320 g/ha,ABUTH [3],100%
same,pest or weed control at 320 g/ha,AVEFA [4],100%
same,pest or weed control at 320 g/ha,VERPE [5],100%
same,pest or weed control at 80 g/ha,AVEFA [6],100%
same,pest or weed control at 80 g/ha,MATIN [7],100%
same,pest or weed control at 320 g/ha,AMARE,100%
same,pest or weed control at 320 g/ha,MATIN [8],100%
same,pest or weed control at 80 g/ha,CYPES,90%
same,pest or weed control at 80 g/ha,STEME,100%
same,pest or weed control at 80 g/ha,ABUTH [9],100%
same,pest or weed control at 80 g/ha,ECHCG [10],100%
same,pest or weed control at 320 g/ha,ECHCG [11],100%
same,pest or weed control at 80 g/ha,VERPE [12],80%
